Literature values as cited in patent US9238611B2, “Process for separating aryl carboxylic acids” (Reliance Industries Limited, priority 2012, dated 2016).

Conditions: per one milligram of the terephthalate salt

For COc1ccc2c3c1O[C@H]1C(=O)CC[C@@]4(O)[C@@H](C2)N(C)CC[C@]314.COc1ccc2c3c1O[C@H]1C(=O)CC[C@@]4(O)[C@@H](C2)N(C)CC[C@]314.O=C(O)c1ccc(C(=O)O)cc1 [terephthalas oxycodonae], the “amount of hydrochloridum oxycodonae pharmacologically equivalent to one milligram” value is listed as 1.13 mg.
